“Also recorded” adds a separate entry of the source. Numbered stars: 1 amine (or outer) side, 2 acyl side, 3 side chain; on linkers, the order of the positions; unused ones are H or OH. Square brackets hold non-standard residues; d marks the D form. Ends that are not written are not given here. γGlu = O=C(O)[C@H](CCC(=O)[*:2])N[*:1]
Key:
[1] = Reducing power assay (method of Oyaizu); details: peptides; vs GSH
Method: 3. Reducing Power Assay Method
The reducing power of yeast hydrolysates was measured using the method of Oyaizu (1986). Specifically, a sample (1-5000 μg/ml, 60 μl) dissolved in distilled water was mixed with phosphate buffer (150 μl, 0.2M, pH 6.6) and potassium ferricyanide (K 3 Fe(CN) 6, 150 μl, 1%), followed by reacting at 50° C. for 20 minutes. Further, 150 μl of trichloroacetic acid (10%) was added thereto, followed by centrifugation at 2,000 g for 10 minutes. 150 μl of the supernatant containing the sample was added to 150 μl of DW and FeCl3 (30 μl, 0.1%). The resulting mixture was allowed to react at 25° C. for 10 minutes, and absorbance was measured at 700 nm.
(§1) The DPPH-scavenging ability and reducing power of the fractions of respective yeast hydrolyzates (Preparation Examples 1 to 4) were measured using the same method of measuring DPPH-scavenging ability and reducing power as in Experimental Example 1.

[2] = DPPH-scavenging ability assay; format: biochemical; details: peptides; vs GSH
Method: 2. DPPH (2,2-Diphenyl-1-Picryl-Hydrazyl-Hydrate) Assay Method
The antioxidant activity due to the DPPH-scavenging ability of yeast hydrolyzates was measured using the methods of Choi Chang-seop et al. (2003) and Shekhar et al. (2014). 20 μl of a sample (1 to 5000 μg/ml) dissolved in distilled water was added to 180 μl of an ethanol solution containing DPPH (0.111 mM). The resulting mixture was allowed to react at 25° C. for 30 minutes, and absorbance was measured at 517 nm. Ascorbic acid was used to create the standard curve, and DPPH-scavenging ability (%) was calculated and expressed by the equation of [(absorbance upon no addition of sample−absorbance of sample)/absorbance upon no addition of sample]×100.
as §1

SOD2 mRNA = SOD2 mRNA expression level by real-time PCR in Tert-BHP-treated HEK293 cells; format: cell-based; details: Tert-BHP 300 μM, peptide 500 μM, 18 hours; for effect on SOD2 mRNA expression: FIG. 6; for SOD2 mRNA expression compared to positive control GSH: vs GSH
Method: The expression of SOD2 mRNA as another antioxidant factor was determined. The cell line culture, RNA extraction, cDNA synthesis and PCR experiments were performed in the same manner as in Experimental Example 5 above. A detailed description thereof is given below.
(§2) An HEK293 cell (kidney cell) line was seeded at a density of 6.6×10^5/well in DMEM (Dulbecco's Modified Eagle's Medium) medium on a 6-well plate and cultured at 37° C. and 5% CO2 for 24 hours. The next day, the medium was exchanged with serum and amino-acid-free media, and then the cells were further cultured for 20 hours or longer. The cells were treated with Tert-BHP (300 μM) and 500 μM 100 types of peptides, and then cultured for 18 hours.
RNA was extracted from the cells treated with 100 types of peptides in (1) using TRIzol (Thermo Fisher Scientific). A GoScript™ Reverse Transcription System (Promega, Wisconsin, USA) was used to synthesize cDNA from the RNA. The cDNA was synthesized by performing annealing with 1 μg RNA, 0.5 μg of an oligo dt primer, 0.5 μg of a random primer, and RT-PCR pre-mixture at 25° C. for 5 minutes, extension at 42° C. for 60 minutes, and inactivation at 70° C. for 15 minutes.
(§3) PCR was performed using Maxime™ PCR PreMix (i-StarTaq) (Intron Biotechnology, Korea). Real-time PCR was performed using SsoAdvanced™ Universal SYBR® Green Supermix (Bio-Rad, USA). 100 ng of cDNA, 2 μM (pmol/μl) primers, 10 μl of 2X SsoAdvanced™ Universal SYBR® Green Supermix and DW were added to the PCR plate well. Then, the temperature was cyclically adjusted to 95° C. for 3 minutes, 95° C. for 10 seconds and 58° C. for 40 seconds for a total of 40 cycles. A PCR reaction was performed using the CFX96 Touch™ Real-Time PCR Detection System (Bio-Rad, California, USA), and fluorescence intensity was measured at the end of each cycle.

Nrf2 mRNA = Nrf2 mRNA expression level by real-time PCR in Tert-BHP-treated HEK293 cells; format: cell-based; details: Tert-BHP 300 μM, peptide 500 μM, 18 hours; for effect on expression of Nrf2 mRNA: FIGS. 5A to 5C; for Nrf2 mRNA expression compared to positive control GSH: vs GSH
Method: In the present invention, the antioxidant activity was compared between the 100 types of peptides, and the change in Nrf2 mRNA expression was measured through PCR in order to select the final peptide.
as §2, with “C. under” for “C. and”
RNA was extracted from the cells treated with 100 types of peptides in (1) using TRIzol (Thermo Fisher Scientific). A GoScript™ Reverse Transcription System (Promega, Wisconsin, USA) was used to synthesize cDNA from the RNA. The cDNA was synthesized by performing annealing using 1 μg of RNA, 0.5 μg of an oligo dt primer, 0.5 μg of a random primer and RT-PCR pre-mixture at 25° C. for 5 minutes, extension at 42° C. for 60 minutes, and inactivation at 70° C. for 15 minutes.
as §3, with “using a” for “using the”

In the case of γ-GLU-GLN-GLU ([γGlu]-Gln-Glu), the “reducing power of peptide compared to GSH” value (shortened to “reducing power of peptide”) [1] was “comparable or superior to GSH”, the “DPPH-scavenging ability of peptide compared to GSH” value [2] was “comparable or superior to GSH” and the “effect on SOD2 mRNA expression” value (SOD2 mRNA) was “increased SOD2 mRNA expression”. For the same substance, the “SOD2 mRNA expression compared to positive control GSH” value (SOD2 mRNA) was “remarkably excellent; also recorded: statistically significant activity”, the “effect on expression of Nrf2 mRNA” value (Nrf2 mRNA) was “improve the expression of Nrf2 mRNA” and the “Nrf2 mRNA expression compared to positive control GSH” value (Nrf2 mRNA) was “remarkably excellent effect; also recorded: statistically significant activity; also recorded: comparable or superior to GSH”.
In the case of “γ-GLU-THR-GLY ([γGlu]-Thr-Gly; also: gamma-glutamyl isopeptide bond (Glu side chain to Thr))”, the “reducing power of peptide” value [1] was “comparable or superior to GSH”, the “DPPH-scavenging ability of peptide compared to GSH” value [2] was “comparable or superior to GSH” and the “effect on SOD2 mRNA expression” value (SOD2 mRNA) was “increased SOD2 mRNA expression”. For the same substance, the “SOD2 mRNA expression compared to positive control GSH” value (SOD2 mRNA) was “remarkably excellent; also recorded: statistically significant activity”, the “effect on expression of Nrf2 mRNA” value (Nrf2 mRNA) was “improve the expression of Nrf2 mRNA” and the “Nrf2 mRNA expression compared to positive control GSH” value (Nrf2 mRNA) was “remarkably excellent effect; also recorded: statistically significant activity; also recorded: comparable or superior to GSH”.
In the case of “γ-GLU-VAL-CYS ([γGlu]-Val-Cys; also: gamma-glutamyl isopeptide bond (Glu side chain to Val))”, the “reducing power of peptide” value [1] was “comparable or superior to GSH”, the “DPPH-scavenging ability of peptide compared to GSH” value [2] was “comparable or superior to GSH” and the “effect on SOD2 mRNA expression” value (SOD2 mRNA) was “increased SOD2 mRNA expression”. The “SOD2 mRNA expression compared to positive control GSH” value (SOD2 mRNA) was “remarkably excellent; also recorded: statistically significant activity”, the “effect on expression of Nrf2 mRNA” value (Nrf2 mRNA) was “improve the expression of Nrf2 mRNA” and the “Nrf2 mRNA expression compared to positive control GSH” value (Nrf2 mRNA) was “remarkably excellent effect; also recorded: statistically significant activity; also recorded: comparable or superior to GSH”.
